What was measured:
[1] = tested on: CPSF3-overexpressing L. donovani promastigotes; experiment: Drug sensitivity, CPSF3-overexpressing L. donovani promastigotes; assay type: cell-based; conditions: Leishmania donovani
Description: (§1) The clonal L. donovani cell line LdBOB (derived from MHOM/SD/62/1S-CL2D) was grown as promastigotes at 28 °C, as described previously. Bloodstream form T. brucei MiTat 1.2 clone 221a and its derived subline, 2T1, were cultured at 37 °C in the presence of 5% CO2 in HMI9-T medium, as described previously. T. brucei cell lines overexpressing CPSF3 and overexpressing a mutated version of CPSF3 (Asn232His) were generated as part of a previous study and cultured as described.[19]
(§2) L. donovaniCPSF3 gene (LdBPK_343210.1) was custom synthesized by GeneArt and ligated into the pIR1SAT vector via BglII restriction sites. Using the Q5 mutagenesis kit (NEB) and the pIR1SAT-LdCPSF3^WT construct as a template, mutations encoding A655C and Asn219His change to CPSF3^WT were introduced. Mutations were introduced using the specific primers 5′-GAGTACACGGCATCCGC-3′ and 5′-[…]-3′ and as per manufacturers’ instructions. Wild-type and mutated pIR1SAT constructs were digested with SwaI and transfected into L. donovani promastigotes, as previously described. Resistant clones were selected with nourseothricin (100 μg/mL), and two clones per transfection were selected for further study.
(§3) Drug sensitivity assays with wild-type and transgenic T. brucei and L. donovani cell lines were carried out as previously described.[31],[32]

[2] = tested on: CPSF3 (Asn219His)-overexpressing L. donovani promastigotes; experiment: Drug sensitivity, CPSF3 (Asn219His)-overexpressing L. donovani promastigotes; assay type: cell-based; conditions: for EC50: Leishmania donovani
Description: as §1, §2, §3

[3] = tested on: L. donovani; experiment: Intramacrophage L. donovani assay; assay type: cell-based; conditions: Leishmania donovani; Table 2; geometric mean of at least three independent assays
Description: (§4) L. infantum (MHOM/MA/67/ITMAP263) and L. donovani (MHOM/ET/67/L82) were maintained in the golden (Syrian) hamster (Mesocricetus auratus). Ex vivo amastigotes were collected from the spleen of an infected donor hamster using two centrifugation purification steps: 230g for 10 min, keeping the supernatant layer, and 4100g for 30 min, keeping the pellet. The spleen parasite burden was assessed using the Stauber technique.[25] For in vitro assays, the inoculum was prepared in RPMI-1640 medium, supplemented with 200 mM L-glutamine, 16.5 mM NaHCO3, and 5% inactivated fetal calf serum. For the in vivo model, an infection inoculum containing 2 × 10^7 amastigotes/100 μL was prepared in phosphate-buffered saline (PBS).
(§5) The assay was performed in sterile 96-well microtiter plates, each well containing 10 μL of the compound dilution and 190 μL of the PMM/amastigote inoculum (3 × 10^4 cells/4.5 × 10^5 parasites per well). Parasite multiplication was compared to untreated infected controls (100% growth) and uninfected controls (0% growth). After five-day incubation, total parasite burdens were microscopically assessed after staining the cells with a 10% Giemsa solution. The results were expressed as a percentage reduction in parasite burden compared to untreated control wells. EC50 values were determined using an extended dose range (2-fold compound dilutions, 8-point concentration curve). Miltefosine was used as the reference drug.[26] For selected compounds, this assay format was also run using the L. donovani inoculum.

[4] = tested on: wild-type L. donovani promastigotes; experiment: Drug sensitivity, wild-type L. donovani promastigotes; assay type: cell-based; conditions: Leishmania donovani
Description: as §1, §3

[5] = PMM cytotoxicity assay; assay type: cell-based; conditions: mouse, primary peritoneal mouse macrophages (PMM); for EC50 at 3 days: Table 2, geometric mean of at least three independent assays
Description: (§6) Primary peritoneal mouse macrophages (PMM) were collected two days after peritoneal stimulation with a 2% potato starch suspension. MRC5SV2 cells (diploid human embryonic lung fibroblasts) were cultured in minimal essential medium (MEM) containing Earle’s salts, supplemented with L-glutamine, NaHCO3, and 5% inactivated fetal calf serum. All cultures and assays were conducted at 37 °C under an atmosphere of 5% CO2.
(§7) Assays were performed in sterile 96-well microtiter plates, each well containing 10 μL of the compound dilution and 190 μL of MRC5SV2 or PMM inoculum (3 × 10^4 cells/mL). Cell growth was compared to untreated controls (100% growth) and assay-media controls (0% growth). After three-day incubation, cell viability was assessed fluorometrically by adding resazurin (50 μL/well of a stock solution in phosphate buffer (50 μg/mL)), incubating for 4 h and measuring fluorescence (λex 550 nm, λem 590 nm). The results were expressed as a percentage reduction in cell growth compared to untreated control wells. […] Tamoxifen was included as the reference drug.

[6] = tested on: L. infantum; experiment: Intramacrophage L. infantum assay; assay type: cell-based; conditions: Leishmania infantum; Table 2; geometric mean of at least three independent assays; read-out: intramacrophage L. infantum EC50
Description: as §4, §5

[7] = Liver microsome stability, human; assay type: in vitro ADME; conditions: human liver microsomes, pH 7.4, Table 4, read-out: HLM Clint
Description: Tests were performed by WuXi AppTec, China. Test compounds (at 1 μM) or positive controls (testosterone, propafenone, and diclofenac) were incubated at 37 °C with liver microsomes from Balb/c mouse, golden (Syrian) hamster, Sprague-Dawley rat, Beagle dog, or human in the presence of a NADPH regenerating system and phosphate buffer (100 mM, pH 7.4) at 0.4 or 0.8 mg/mL microsomal protein. The samples were removed at time intervals from 0 to 60, 90, or 120 min and immediately mixed with cold methanol supplemented or not with acid (3% formic acid) and centrifuged prior to analysis by LC-MS/MS using tolbutamide or propranolol as internal standards.

[8] = tested on: L. infantum; experiment: L. infantum hamster model of VL; assay type: in vivo
Description: as §4
Female golden hamsters for the in vivo model of visceral leishmaniasis were purchased from Janvier, France (body weight 80–100 g). This study using laboratory rodents was carried out in strict accordance with all mandatory guidelines (EU directives, including the Revised Directive 2010/63/EU on the protection of Animals used for Scientific Purposes that came into force on 01/01/2013, and the declaration of Helsinki in its latest version) and was approved by the ethical committee of the University of Antwerp, Belgium (UA-ECD 2011-74). Female golden hamsters for the pharmacokinetic study were purchased from Vital River, Beijing, China. This study was conducted following institutional review and in accordance with institutional and national guidelines at WuXi AppTec (the Institutional Animal Care and Use Committee (IACUC)). Balb/c mice for the in vivo model of visceral leishmaniasis (LSHTM) were purchased from Charles River, U.K., and related studies were conducted under license PPL 70/8427 from the U.K. Home Office.
Female golden hamsters were randomly allocated to experimental groups of six animals each, based on body weight. At the start of the experiment (Day 0), each animal was infected with L. infantum or L. donovani inoculum, delivered by intracardial injection. Six hamsters were assigned to the vehicle-treated, infected control group. Six hamsters were assigned per group (1 group/compound) for the evaluation of compound and miltefosine. […] At Day 35 (10 days after the final oral dose), all animals were euthanized and autopsies were conducted. The study evaluated the following parameters. • 1. Adverse effects: all animals were observed daily for the occurrence/presence of adverse effects. • 2. Body weight: all animals were weighed twice per week to monitor general health. • 3. Parasite burden: amastigote burdens in each target organ (liver, spleen, and bone marrow) were determined at Day 35. The organs of individual animals were weighed (except for bone marrow). Impression smears were stained with Giemsa for microscopic examination of the total amastigote burden, defined as the mean number of amastigotes per cell multiplied by the number of cells counted (minimum 500 nuclei); the results were expressed as a percentage reduction in amastigote burden compared to vehicle-treated, infected control animals.

[9] = MRC5 cytotoxicity assay; assay type: cell-based; conditions: human, MRC5SV2 cells (human embryonic lung fibroblasts); Table 4; geometric mean of at least two independent tests
Description: as §6, §7

[10] = tested on: Trypanosoma brucei; design: method as in PMID 21738803; conditions: in vitro; read-out: EC50 against Trypanosoma brucei; cited from earlier work

With O=C(Nc1ccc2c(c1)B(O)OC2)c1ccc(F)cc1C(F)(F)F [Compound 3] the EC50 [1] was 1400 ± 30 nM, the EC50 [2] was 4400 ± 200 nM and the EC50 [3] was 1200 nM. The EC50 [4] was 1200 ± 20 nM, the EC50 at 3 days [5] was > 64000 nM and the CC50 at 3 days ([5]; Table 4, geometric mean of at least two independent tests) was > 64000 nM. For the same compound, the EC50 [6] was 2700 nM, the microsomal CLint at 2 h, 1 µM [7] was 0.8 µL/min/mg and the “reduction in parasite burden, bone marrow” value (from here on “reduction … bone marrow”) ([8]; 25 mg/kg QD for 5 days) was 81.6%. For the same compound, the “reduction in parasite burden, spleen” value ([8]; 25 mg/kg QD for 5 days) was 81.8%, the “reduction in parasite burden, liver” value ([8]; 25 mg/kg QD for 5 days, vs vehicle-treated infected controls) was 87.8% and the “reduction … bone marrow” value ([8]; 50 mg/kg QD for 5 days) was 91.2%. For the same compound, the “reduction in parasite burden, liver” value ([8]; 50 mg/kg QD for 5 days) was 97.4%, the “reduction in parasite burden, spleen” value ([8]; 50 mg/kg QD for 5 days) was 95.0% and the “reduction … bone marrow” value ([8]; 100 mg/kg QD for 5 days) was 88.3%. For the same compound, the “reduction in parasite burden, liver” value ([8]; 100 mg/kg QD for 5 days) was 98.6%, the “reduction in parasite burden, spleen” value ([8]; 100 mg/kg QD for 5 days) was 96.0% and the CC50 at 3 days [9] was > 64000 nM.

For CC1(C)OB(O)c2cc(NC(=O)c3ccc(F)cc3C(F)(F)F)ccc21 [Compound 1, acoziborole, reference compound], the EC50 [1] was 2800 ± 100 nM, the EC50 [2] was 11700 ± 400 nM and the “fold reduction in susceptibility” value ([2]; promastigotes overexpressing mutated CPSF3) was 5 fold. The EC50 [3] was 59000 nM, the EC50 [10] was 795 nM and the EC50 [4] was 2500 ± 100 nM. For the same compound, the EC50 at 3 days [5] was > 64000 nM, the CC50 at 3 days ([5]; supplement csv) was > 64000 nM and the EC50 [6] was > 64000 nM.
